Laboratory results reported in ChEMBL document CHEMBL1123336, “Selective monoamine oxidase inhibitors. 3. Cyclic compounds related to 4-aminophenethylamine. Preparation and neuron-selective action of some 5-(2-aminoethyl)-2,3-dihydroindoles” (J Med Chem, 1986).
Several values for one entry are separate records, joined by “and”; a condition that tells them apart may be missing. Equal values may be shown once.

How the values were obtained:
[1] = biological target: Norepinephrine transporter (Rattus norvegicus, UniProt Q9WTR4); test: In vitro inhibition of NE uptake at NE uptake site; assay type: functional
Chain of Norepinephrine transporter (Q9WTR4 whole entry): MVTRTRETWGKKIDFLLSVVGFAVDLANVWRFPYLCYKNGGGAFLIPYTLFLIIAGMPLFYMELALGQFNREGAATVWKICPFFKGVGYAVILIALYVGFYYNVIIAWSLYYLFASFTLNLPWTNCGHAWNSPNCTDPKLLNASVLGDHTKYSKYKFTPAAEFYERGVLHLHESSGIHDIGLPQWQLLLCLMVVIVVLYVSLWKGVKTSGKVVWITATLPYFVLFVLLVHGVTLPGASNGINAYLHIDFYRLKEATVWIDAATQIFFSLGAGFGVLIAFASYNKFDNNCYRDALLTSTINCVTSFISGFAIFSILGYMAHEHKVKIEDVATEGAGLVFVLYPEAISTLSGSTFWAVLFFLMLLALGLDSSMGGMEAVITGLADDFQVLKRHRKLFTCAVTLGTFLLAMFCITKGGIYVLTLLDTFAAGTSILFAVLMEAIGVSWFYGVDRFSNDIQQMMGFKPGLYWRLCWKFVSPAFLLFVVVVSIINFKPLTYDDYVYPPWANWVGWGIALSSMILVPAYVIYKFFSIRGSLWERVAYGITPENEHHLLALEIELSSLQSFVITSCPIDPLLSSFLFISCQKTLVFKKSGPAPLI

[2] = organism: Rattus norvegicus; test: The lowest dose that release 5-HT causing a serotonin syndrome in rat; assay type: functional
[3] = system: Rattus norvegicus; test: Compound (po) was tested in vivo for inhibition of MAO activity remaining outside (EN) 5-HT synaptosomes of rat hypothalamus.; assay type: functional
[4] = biological target: Sodium-dependent dopamine transporter (Rattus norvegicus, UniProt P23977); test: In […] inhibition of DA uptake at dopamine uptake site; assay type: functional
Chain of Sodium-dependent dopamine transporter (P23977 whole entry): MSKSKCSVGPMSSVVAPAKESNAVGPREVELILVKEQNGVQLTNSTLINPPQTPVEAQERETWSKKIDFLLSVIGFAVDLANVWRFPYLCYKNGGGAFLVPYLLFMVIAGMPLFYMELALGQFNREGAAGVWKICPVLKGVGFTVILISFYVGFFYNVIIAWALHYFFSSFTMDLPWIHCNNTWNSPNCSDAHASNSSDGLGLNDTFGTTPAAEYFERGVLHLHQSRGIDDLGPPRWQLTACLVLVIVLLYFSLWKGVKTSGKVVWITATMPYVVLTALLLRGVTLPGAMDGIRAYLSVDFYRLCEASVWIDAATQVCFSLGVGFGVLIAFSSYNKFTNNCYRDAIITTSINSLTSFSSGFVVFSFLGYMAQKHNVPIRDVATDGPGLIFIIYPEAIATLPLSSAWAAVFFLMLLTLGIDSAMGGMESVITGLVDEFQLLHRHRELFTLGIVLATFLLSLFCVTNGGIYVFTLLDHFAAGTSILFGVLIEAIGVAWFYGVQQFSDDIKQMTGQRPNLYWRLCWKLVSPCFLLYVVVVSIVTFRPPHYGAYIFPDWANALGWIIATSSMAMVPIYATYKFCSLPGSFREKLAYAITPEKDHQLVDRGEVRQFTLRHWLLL

[5] = (§1) Compound (po) was tested in vivo for inhibition of MAO activity remaining outside (EN) DA synaptosomes of rat striatum; assay type: functional
[6] = biological target: T1, Monoamine oxidase (Rattus norvegicus, UniProt P19643+P21396); test: Compound was tested in vitro for inhibition of MAO by using [14C]phenylethylamine as substrate in rat brain mitochondrial preparation; assay type: tissue-based
T1 sequence (P19643 whole entry): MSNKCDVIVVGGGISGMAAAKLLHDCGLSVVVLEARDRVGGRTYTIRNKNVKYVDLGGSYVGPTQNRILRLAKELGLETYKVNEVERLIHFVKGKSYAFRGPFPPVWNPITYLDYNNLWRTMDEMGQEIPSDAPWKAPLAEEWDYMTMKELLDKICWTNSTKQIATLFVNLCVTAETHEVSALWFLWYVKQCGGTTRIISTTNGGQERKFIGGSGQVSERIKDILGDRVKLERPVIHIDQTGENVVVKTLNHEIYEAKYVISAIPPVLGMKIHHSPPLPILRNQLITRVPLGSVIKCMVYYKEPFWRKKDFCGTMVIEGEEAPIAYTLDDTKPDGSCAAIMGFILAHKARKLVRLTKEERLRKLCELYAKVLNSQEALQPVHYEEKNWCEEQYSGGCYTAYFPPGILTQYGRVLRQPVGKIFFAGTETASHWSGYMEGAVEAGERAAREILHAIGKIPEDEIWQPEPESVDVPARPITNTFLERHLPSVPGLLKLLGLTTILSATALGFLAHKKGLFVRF
T1 sequence (P21396 whole entry): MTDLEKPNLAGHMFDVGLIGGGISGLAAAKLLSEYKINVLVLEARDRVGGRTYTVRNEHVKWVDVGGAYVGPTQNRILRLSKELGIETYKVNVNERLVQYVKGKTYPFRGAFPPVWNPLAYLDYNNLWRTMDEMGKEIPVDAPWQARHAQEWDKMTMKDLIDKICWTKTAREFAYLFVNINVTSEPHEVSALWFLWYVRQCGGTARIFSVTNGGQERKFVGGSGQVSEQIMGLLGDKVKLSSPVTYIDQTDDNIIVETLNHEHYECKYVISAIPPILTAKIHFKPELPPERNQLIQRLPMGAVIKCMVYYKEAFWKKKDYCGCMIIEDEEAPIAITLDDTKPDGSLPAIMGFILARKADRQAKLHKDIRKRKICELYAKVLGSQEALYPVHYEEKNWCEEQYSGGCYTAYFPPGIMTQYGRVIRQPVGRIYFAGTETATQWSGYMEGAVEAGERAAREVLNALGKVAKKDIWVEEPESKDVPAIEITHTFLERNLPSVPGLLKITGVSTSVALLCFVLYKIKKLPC

[7] = biological target: Sodium-dependent serotonin transporter (Rattus norvegicus, UniProt P31652); test: Compound was tested in vitro for inhibition of Serotonin transporter uptake at serotonin uptake site
Chain of Sodium-dependent serotonin transporter (P31652 whole entry): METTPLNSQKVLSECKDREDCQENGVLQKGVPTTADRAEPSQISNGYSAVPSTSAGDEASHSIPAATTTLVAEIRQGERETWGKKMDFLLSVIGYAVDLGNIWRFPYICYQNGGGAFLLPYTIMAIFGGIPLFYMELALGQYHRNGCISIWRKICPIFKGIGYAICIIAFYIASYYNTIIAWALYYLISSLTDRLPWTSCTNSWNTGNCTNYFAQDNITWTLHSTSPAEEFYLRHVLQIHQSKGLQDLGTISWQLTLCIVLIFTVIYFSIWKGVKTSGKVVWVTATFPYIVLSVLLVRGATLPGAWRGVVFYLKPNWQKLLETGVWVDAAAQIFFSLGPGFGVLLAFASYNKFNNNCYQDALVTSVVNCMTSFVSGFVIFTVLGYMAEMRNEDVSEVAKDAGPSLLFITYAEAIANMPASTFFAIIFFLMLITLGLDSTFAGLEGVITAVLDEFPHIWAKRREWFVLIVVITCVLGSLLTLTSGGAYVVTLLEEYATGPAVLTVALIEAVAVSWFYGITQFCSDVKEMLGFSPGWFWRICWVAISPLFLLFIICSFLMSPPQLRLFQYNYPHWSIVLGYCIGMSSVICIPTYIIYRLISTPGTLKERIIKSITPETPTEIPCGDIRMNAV

[8] = system: Rattus norvegicus; test: Compound (po) was tested in vivo for inhibition of MAO activity remaining inside (N) 5-HT synaptosomes of rat hypothalamus.; assay type: functional
[9] = biological target: T1, Monoamine oxidase; test: Compound was tested in vitro for inhibition of MAO by using [14C]5-HT as substrate in rat brain mitochondrial preparation; assay type: tissue-based
[10] = organism: Rattus norvegicus; test: The lowest dose that release DA causing increased motor activity in rat; assay type: functional
[11] = system: Rattus norvegicus; test: Compound (po) was tested in vivo for inhibition of MAO activity remaining inside (N) NE synaptosomes of rat hypothalamus; assay type: functional
[12] = organism: Rattus norvegicus; test: The lowest dose that release NE causing reversal of ptosis in rat; assay type: functional
[13] = system: Rattus norvegicus; test: Compound (po) was tested in vivo for inhibition of MAO activity remaining inside (N) DA synaptosomes of rat striatum; assay type: functional
[14] = Ratio of the inhibition of MAO using [14C]-PEA and [14C]5-HT in rat brain; assay type: tissue-based
[15] = Ratio of inhibition of MAO activity remaining outside (EN) and inside (N) synaptosomes; assay type: subcellular; conditions: Brain
[16] = system: Rattus norvegicus; test: as §1; assay type: functional
[17] = system: Rattus norvegicus; test: Compound (po) was tested in vivo for inhibition of Monoamino oxidase activity remaining inside (N) 5-HT synaptosomes of rat hypothalamus.; assay type: functional
[18] = biological target: T1, Monoamine oxidase; test: Compound was tested in vitro for inhibition of Monoamino oxidase by using [14C]phenylethylamine as substrate in rat brain mitochondrial preparation; assay type: tissue-based
[19] = biological target: T1, Monoamine oxidase; test: Compound was tested in vitro for inhibition of Monoamino oxidase by using [14C]5-HT as substrate in rat brain mitochondrial preparation; assay type: tissue-based

Row | Structure (SMILES) | IC50 [1] [µM] | ED50 [2] [µmol/kg] | ED50 [3] [µmol/kg] | IC50 [4] [µM] | ED50 [5] [µmol/kg] | IC50 [6] [µM] | IC50 [7] [µM] | ED50 [8] [µmol/kg] | IC50 [9] [µM] | ED50 [10] [µmol/kg] | ED50 [11] [µmol/kg] | ED50 [12] [µmol/kg] | ED50 [13] [µmol/kg] | Ratio [14] | Ratio [15] | ED50 [16] [µmol/kg] | ED50 [17] [µmol/kg] | IC50 [18] [µM] | IC50 [19] [µM]
1 | CCN1CCc2cc(CC(C)N)c(C)cc21 (configuration not stated) | 2.5 | > 87 | > 27 | > 10 | 17 | 77 | 2.2 | > 27 | 0.33 | > 87 | 17 | 87 | 12 | 233 | > 3 and 1.4 | – | – | – | –
2 | Cc1cc(N(C)C)ccc1CC(C)N (configuration not stated) | 0.65 | 7.5 | – | > 10 | – | > 1000 | 0.1 | 1.1 | 0.8 | > 300 | 2 | 15 | 3.3 | > 1250 | – | 4.4 | – | – | –
3 | Cc1c(CC(C)N)ccc2c1CCN2 (configuration not stated) | 0.75 | 64 | – | 9 | – | > 500 | 0.38 | 0.8 | 0.8 | > 128 | 1.1 | 128 | 4.6 | > 625 | – | 13 | – | – | –
4 | CC(N)Cc1ccc2c(c1)CCN2 (configuration not stated) | 0.36 | 42 | – | 3.8 | – | > 100 | 1.8 | 1.8 | 5 | 42 | 1.1 | 17 | 0.8 | > 20 | > 15 and > 31 and 25 | 20 | – | – | –
5 | CCC(N)Cc1ccc2c(c1)CCN2 (configuration not stated) | 0.5 | 64 | – | 10 | – | – | 3.6 | – | – | > 256 | 32 | 128 | 26 | 57 | – | 74 | 11 | 800 | 14
6 | Cc1cc2c(cc1CC(C)N)CCN2 (configuration not stated) | 6 | > 61 | – | 6 | – | 170 | > 16 | > 61 | 13 | > 61 | 49 | > 61 | > 61 | 13 | > 1 | > 61 | – | – | –
7 | CCN1CCc2c1ccc(CC(C)N)c2C (configuration not stated) | 7.5 | 87 | – | > 10 | – | > 500 | 1.5 | 13 | 1.1 | > 87 | 9 | > 87 | 10 | > 455 | – | 16 | – | – | –
8 | CC(C)(N)Cc1ccc2c(c1)CCN2 | 2.7 | 128 | – | > 10 | – | 2600 | 1.9 | 4.4 | 2.8 | > 256 | 12 | 64 | 8 | 929 | – | 36 | – | – | –
9 | CCC(N)Cc1ccc2c(c1Cl)CCN2 (configuration not stated) | 1.6 | 28 | – | > 10 | – | – | 0.3 | 9.1 | – | > 112 | 11 | > 112 | 12 | – | 2 (2×) and 2.3 | 28 | – | – | –
10 | CC(N)Cc1ccc2c(c1Cl)CCN2 (configuration not stated) | 0.32 | 59 | – | > 10 | – | 800 | 0.34 | 1.5 | 0.2 | > 59 | 1.6 | 59 | 2.2 | 4000 | – | 4.1 | – | – | –
